{
  "source": "paper PMC5218480",
  "about": "(PLoS ONE, 2017)",
  "tested_on": "MV-4-11 cells",
  "assay": "Gene expression microarray analysis (Affymetrix PrimeView) and GSEA",
  "format": "cell-based, human",
  "settings": "ProbeSet 11754607_s_at; LIST B",
  "data": [
    {"smiles": "Nc1ccc(-c2cccs2)cc1NC(=O)c1ccc2c(c1)cc(C1CC1)n2CCN1CCOCC1", "note": "[ACY-1035]", "values": [
      {"measurement": "RFU, HSP90B1 /// MIR3652", "value": 2548.05, "unit": "RFU"}
    ]}
  ]
}
